This is an account of results in BindingDB's records for doi:10.7270/Q2V986FT (Emory University, 2007).

In the test the target is T1, 14-3-3 protein gamma (Homo sapiens, UniProt P61981).
T1 sequence (P61981 whole entry): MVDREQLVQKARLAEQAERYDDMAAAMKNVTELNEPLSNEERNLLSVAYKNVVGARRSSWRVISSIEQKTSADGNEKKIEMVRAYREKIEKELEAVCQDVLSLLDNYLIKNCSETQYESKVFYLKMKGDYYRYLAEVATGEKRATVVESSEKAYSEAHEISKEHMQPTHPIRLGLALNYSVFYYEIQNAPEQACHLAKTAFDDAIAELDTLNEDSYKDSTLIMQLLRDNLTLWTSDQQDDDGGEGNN
The test is described as follows: modulators of 14-3-3 gamma client binding – dose response (AID 711).
As to `CC(N=O)C(=O)NCc1ccccn1` (stereo not drawn) [(2E)-2-(hydroxyimino)-N-(pyridin-2-ylmethyl)propanamide], the IC50 is over 50 µM.

`Cc1ccc(C2C3CN(C(C)C)CCC3=C(C#N)C(=N)C2(C#N)C#N)cc1` (stereo not drawn) [SMR000034220]: the IC50 was over 50 µM.

`CC1=NC(c2ccccc2)C(C#N)(C#N)C(C#N)(C#N)C1` (stereo not drawn) [SMR000037705] yielded an IC50 of 3.15 µM.
